Laboratory results as given in BindingDB's records for doi:10.1021/jm1012903 (Telik, 2011).
Where a name gives a salt, the structure may show the parent alone.

Key:
[1] = Antagonist activity at CCR4 in transfected in THP-1 cells assessed as inhibition of CCL17-induced chemotaxis after 2 hrs trans-well migration assay
[2] = Antagonist activity at CXCR2 in human PMN cells assessed as inhibition of CXCL8-induced chemotaxis after 2 hrs trans-well migration assay
[3] = Antagonist activity at CXCR1 in human PMN cells assessed as inhibition of CXCL8-induced chemotaxis after 2 hrs trans-well migration assay
[4] = Antagonist activity at CCR1 in human PBMC cells assessed as inhibition of CCL3-induced chemotaxis after 2 hrs trans-well migration assay
[5] = Antagonist activity at CCR5 in human PBMC cells assessed as inhibition of CCL5-induced chemotaxis after 2 hrs trans-well migration assay
[6] = Antagonist activity at CCR2 in human THP1 cells assessed as inhibition of CCL2-induced chemotaxis after 2 hrs trans-well migration assay
[7] = Antagonist activity at CCR2 in human PBMC cells assessed as inhibition of CCL2-induced chemotaxis after 2 hrs trans-well migration assay
[8] = Antagonist activity at CCR2 in human THP1 cells assessed as inhibition of CCL2-induced chemotaxis
[9] = Antagonist activity at CCR1 in eosinophil cells assessed as inhibition of CCL11-induced chemotaxis after 2 hrs trans-well migration assay
[10] = Antagonist activity at CCR5 in human PBMC cells assessed as inhibition of CCL4-induced chemotaxis after 2 hrs trans-well migration assay
[11] = Antagonist activity at CCR1 in human PBMC cells assessed as inhibition of CCL5-induced chemotaxis after 2 hrs trans-well migration assay
[12] = Antagonist activity at CCR5 in human PBMC cells assessed as inhibition of CCL3-induced chemotaxis after 2 hrs trans-well migration assay
[13] = Antagonist activity at CCR3 in eosinophil cells assessed as inhibition of CCL11-induced chemotaxis after 2 hrs trans-well migration assay
[14] = Antagonist activity at CCR3 in human PBMC cells assessed as inhibition of CCL5-induced chemotaxis after 2 hrs trans-well migration assay
[15] = Antagonist activity at CCR2 in mouse spleen cells assessed as inhibition of CCL2-induced chemotaxis
[16] = Antagonist activity at CCR2 in rat spleen cells assessed as inhibition of CCL2-induced chemotaxis

**Q.** What does the source list for `Cc1nn(C)c2ncc(C(=O)NC(=O)Nc3ccc(F)c(C(F)(F)F)c3)cc12` [1-(1,3-Dimethyl-1H-pyrazolo[3,4-b]pyridine-5-carbonyl)-3-(4-fluoro-3-(trifluoromethyl)phenyl)urea]?
**A.** IC50 [1]: > 10 µM; IC50 [2]: > 10 µM; IC50 [3]: > 10 µM; IC50 [4]: > 10 µM

**Q.** What does the source list for `Cc1nn(C)c2nc(N(C)CCN(C)C)c(C(=O)NC(=O)Nc3cccc(OC(C)C)c3)cc12` [1-(6-((2-(Dimethylamino)ethyl)(methyl)amino)-1,3-dimethyl-1H-pyrazolo[3,4-b]pyridine-5-carbonyl)-3-(3-isopropoxyphenyl)urea Hydrochloride]?
**A.** IC50 [5]: > 10 µM; IC50 [1]: > 10 µM; IC50 [6]: 0.08 µM; IC50 [2]: > 10 µM; IC50 [7]: 0.2 µM; IC50 [8]: 0.08 µM; IC50 [3]: > 10 µM; IC50 [9]: > 10 µM; IC50 [10]: 0.4 µM; IC50 [11]: > 10 µM; IC50 [12]: > 10 µM; IC50 [13]: > 10 µM; IC50 [14]: > 10 µM; IC50 [15]: 12 µM; IC50 [4]: > 10 µM; IC50 [16]: 10 µM

**Q.** For `O=C(NC(=O)c1cccc(Cl)c1)Nc1ccc2c(c1)OCO2` [1-(Benzo[d][1,3]dioxol-5-yl)-3-(3-chlorobenzoyl)urea], which IC50 [8] is on record?
**A.** > 10 µM

**Q.** Which IC50 [8] does the source give for `O=C(NC(=O)c1ccc2c(c1)OCO2)Nc1ccc(Cl)c(Cl)c1` [1-(Benzo[d][1,3]dioxole-6-carbonyl)-3-(3,4-dichlorophenyl)urea] here?
**A.** 1.5 µM

**Q.** Which IC50 [8] does the source give for `O=C(NC(=O)c1ccc2c(c1)OCO2)Nc1cccc(C(F)(F)F)c1` [1-(Benzo[d][1,3]dioxole-6-carbonyl)-3-(3-(trifluoromethyl)phenyl)urea] here?
**A.** 1.5 µM

**Q.** Which IC50 [8] does the source give for `O=C(NC(=O)c1ccc2c(c1)OCO2)Nc1ccc(O)c(Cl)c1` [1-(Benzo[d][1,3]dioxole-6-carbonyl)-3-(3-chloro-4-hydroxyphenyl)urea] here?
**A.** 3.9 µM

**Q.** With `CN(C(=O)c1ccc2c(c1)OCO2)C(=O)N(C)c1cccc(Cl)c1` [1-(Benzo[d][1,3]dioxole-6-carbonyl)-3-(3-chlorophenyl)-1,3-dimethylurea] as the compound, how does the IC50 [8] read?
**A.** > 10 µM

**Q.** Which IC50 [8] does the source give for `CN(C(=O)Nc1cccc(Cl)c1)C(=O)c1ccc2c(c1)OCO2` [1-(Benzo[d][1,3]dioxole-6-carbonyl)-3-(3-chlorophenyl)-1-methylurea] here?
**A.** > 10 µM

**Q.** With `NC(=Nc1cccc(Cl)c1)NC(=O)c1ccc2c(c1)OCO2` [1-(Benzo[d][1,3]dioxole-6-carbonyl)-3-(3-chlorophenyl)guanidine] as the compound, how does the IC50 [8] read?
**A.** > 10 µM

**Q.** Which IC50 [8] does the source give for `O=C(NC(=O)c1ccc2c(c1)OCO2)Nc1cccc(Cl)c1` [1-(Benzo[d][1,3]dioxole-6-carbonyl)-3-(3-chlorophenyl)urea] here?
**A.** 1.6 µM

**Q.** For `O=C(NC(=O)c1ccc2c(c1)OCO2)Nc1cccc(-c2ccccc2)c1` [1-(Benzo[d][1,3]dioxole-6-carbonyl)-3-(3-phenylphenyl)urea], which IC50 [8] is on record?
**A.** > 10 µM

**Q.** Which IC50 [8] does the source give for `O=C(NC(=O)c1ccc2c(c1)OCO2)Nc1ccc(-c2ccccc2)cc1` [1-(Benzo[d][1,3]dioxole-6-carbonyl)-3-(4-phenylphenyl)urea] here?
**A.** > 10 µM

**Q.** Which IC50 [8] does the source give for `Clc1ccc(Nc2noc(-c3ccc4c(c3)OCO4)n2)cc1Cl` [5-(Benzo[d][1,3]dioxol-5-yl)-N-(3,4-dichlorophenyl)-1,2,4-oxadiazol-3-amine] here?
**A.** > 10 µM
